# From patent US20250051347A1, “BIFUNCTIONAL CHIMERIC HETEROCYCLIC COMPOUND AND USE THEREOF AS ANDROGEN RECEPTOR DEGRADER” (Hinova Pharmaceuticals, Inc., priority 2021, published 2025)
# Target: T1, androgen receptor (AR) splicing variant AR-v7 (Homo sapiens, UniProt P10275)
# T1 construct: The degradation activity of compounds on AR-v7 in 22RV1 cells; host or cells: 22RV1 cells
# T1 sequence (P10275 1-644 isoform P10275-3): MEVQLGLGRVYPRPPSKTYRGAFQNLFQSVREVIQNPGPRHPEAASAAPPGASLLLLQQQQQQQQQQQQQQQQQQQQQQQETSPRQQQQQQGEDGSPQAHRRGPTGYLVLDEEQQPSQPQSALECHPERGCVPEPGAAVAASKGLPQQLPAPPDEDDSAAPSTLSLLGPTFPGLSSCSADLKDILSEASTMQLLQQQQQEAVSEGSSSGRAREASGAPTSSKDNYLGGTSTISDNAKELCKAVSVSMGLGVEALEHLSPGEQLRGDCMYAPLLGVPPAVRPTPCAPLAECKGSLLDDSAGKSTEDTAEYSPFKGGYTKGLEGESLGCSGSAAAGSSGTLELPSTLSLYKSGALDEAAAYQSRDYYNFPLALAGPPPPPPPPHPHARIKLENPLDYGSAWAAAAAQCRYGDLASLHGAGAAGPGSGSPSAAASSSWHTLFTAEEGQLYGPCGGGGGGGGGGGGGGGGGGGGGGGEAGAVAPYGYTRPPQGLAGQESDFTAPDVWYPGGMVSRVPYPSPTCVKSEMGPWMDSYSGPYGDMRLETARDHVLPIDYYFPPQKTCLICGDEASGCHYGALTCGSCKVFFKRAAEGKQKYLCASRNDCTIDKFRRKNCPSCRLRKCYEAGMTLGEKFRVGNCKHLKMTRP
# Test: Degradation activity on androgen receptor splicing variant AR-v7 in 22RV1 cells (ELISA)
# Format: cell-based
# Details: AR-v7 degradation in 22RV1 cells, 48 h
Compound,DC50 (class symbols),DC50 (numeric values)
"CC(C)(c1ccc(OCc2ccnc(N3CC4(COC4)C3)n2)cc1)c1ccc(OC2CCN(Cc3ccc4c(c3)C(=O)N(C3CCC(=O)NC3=O)C4=O)CC2)cc1 (stereo not shown) [Example 147, 5-((4-(4-(2-(4-((2-(2-oxa-6-azaspiro[3.3]heptan-6-yl)pyrimidin-4-yl)methoxy)phenyl)propan-2-yl)phenoxy)piperidin-1-yl)methyl)-2-(2,6-dioxopiperidin-3-yl)isoindolin-1,3-dione]",1000 to 5000 nM,–
Cc1nc(-c2ccc(Oc3ccc(C(C)(C)c4ccc(O[C@H]5C[C@@H](Nc6ccc7c(c6)C(=O)N(C6CCC(=O)NC6=O)C7=O)C5)cc4)cc3)cn2)no1 (stereo partly shown) [Example 587],11 to 100 nM,–
CC(C)(c1ccc(Oc2ncc(-n3nccn3)cn2)cc1)c1ccc(O[C@H]2C[C@@H](Nc3ccc4c(c3)C(=O)N(C3CCC(=O)NC3=O)C4=O)C2)cc1 (stereo partly shown) [Example 329],11 to 100 nM,–
"5-(((1s,3s)-3-(4-(2-(4-((2-(2H-1,2,3-triazol-2-yl)pyrimidin-5-yl)oxy)phenyl)propan-2-yl)phenoxy)cyclobutyl)amino)-2-(2,6-dioxopiperidin-3-yl)isoindolin-1,3-dione [Example 482]",11 to 100 nM,–
"CC(C)(c1ccc(OCCCOCCCOCCCNc2cccc3c2C(=O)N(C2CCC(=O)NC2=O)C3=O)cc1)c1ccc(OCc2ccnc(NS(C)(=O)=O)n2)cc1 (stereo not shown) [Example 19, N-(4-((4-(2-(4-(3-(3-(3-((2-(2,6-dioxopiperidin-3-yl)-1,3-dioxoisoindolin-4-yl)amino)propoxy)propoxy)propoxy)phenyl)propan-2-yl)phenoxy)methyl)pyrimidin-2-yl)methanesulfonamide]",–,6860 nM
Cc1cnc(N2CC3(COC3)C2)nc1COc1ccc(C(C)(C)c2ccc(O[C@H]3C[C@@H](Nc4ccc5c(c4)C(=O)N(C4CCC(=O)NC4=O)C5=O)C3)cc2)cc1 (stereo partly shown) [Example 203],11 to 100 nM,–
"CC(=O)c1nccc(COc2ccc(C(C)(C)c3ccc(OCC4CCN(c5ccc6c(c5)C(=O)N(C5CCC(=O)NC5=O)C6=O)C4)cc3)cc2)n1 (stereo not shown) [Example 302, 5-(3-((4-(2-(4-((2-acetylpyrimidin-4-yl)methoxy)phenyl)propan-2-yl)phenoxy)methyl)pyrrolidin-1-yl)-2-(2,6-dioxopiperidin-3-yl)isoindolin-1,3-dione]",–,≥ 10000 nM
Cc1nnc(-c2coc(Oc3ccc(C(C)(C)c4ccc(O[C@H]5C[C@H](Nc6ccc7c(c6)C(=O)N(C6CCC(=O)NC6=O)C7=O)C5)cc4)cc3)n2)o1 (stereo partly shown) [Example 514],11 to 100 nM,–
"CC(=O)c1cc(COc2ccc(C(C)(C)c3ccc(OCCCCCCCCOCCCCNc4ccc5c(c4)C(=O)N(C4CCC(=O)NC4=O)C5=O)cc3)cc2)ccn1 (stereo not shown) [Example 347, 5-((4-((8-(4-(2-(4-((2-acetylpyridin-4-yl)methoxy)phenyl)isopropan-2-yl)phenoxy)octyl)oxy)butyl)amino)-2-(2,6-dioxopiperidin-3-yl)isoindolin-1,3-dione]",1000 to 5000 nM,–
CC(C)(c1ccc(OCc2nc(N3CC4(COC4)C3)ncc2F)cc1)c1ccc(O[C@H]2C[C@@H](Nc3ccc4c(c3)C(=O)N(C3CCC(=O)NC3=O)C4=O)C2)cc1 (stereo partly shown) [Example 199],11 to 100 nM,–
CC(O)c1nccc(COc2ccc(C(C)(C)c3ccc(OCCCCCCCCOCCN4CCN(c5ccc6c(c5)C(=O)N(C5CCC(=O)NC5=O)C6=O)CC4)cc3)cc2)n1 (stereo not shown) [Example 300],–,> 10000 nM
CC(C)(c1ccc(Oc2ccc(N3CC(N4CC(F)(F)C4)C3)nn2)cc1)c1ccc(O[C@H]2C[C@H](Nc3ccc4c(c3)C(=O)N(C3CCC(=O)NC3=O)C4=O)C2)cc1 (stereo partly shown) [Example 424],11 to 100 nM,–
CC(C)(c1ccc(Oc2nc(-n3ccnn3)ccc2F)cc1)c1ccc(O[C@H]2C[C@H](Nc3ccc4c(c3)C(=O)N(C3CCC(=O)NC3=O)C4=O)C2)cc1 (stereo partly shown) [Example 319],11 to 100 nM,–
CC(C)(c1ccc(OCCCNc2cccc3c2C(=O)N(C2CCC(=O)NC2=O)C3=O)cc1)c1ccc(OCc2ccnc(N3CCOCC3)n2)cc1 (stereo not shown) [Example 59],11 to 100 nM,–
CC(=O)c1nccc(COc2ccc(C(C)(C)c3ccc(OC4CC5(CCN(c6ccc7c(c6)C(=O)N(C6CCC(=O)NC6=O)C7=O)CC5)C4)cc3)cc2)n1 (stereo not shown) [Example 489],1000 to 5000 nM,–
CC(O)c1cnc(Oc2ccc(C(C)(C)c3ccc(O[C@H]4C[C@@H](Nc5ccc6c(c5)C(=O)N(C5CCC(=O)NC5=O)C6=O)C4)cc3)cc2)cn1 (stereo partly shown) [Example 129],11 to 100 nM,–
"CC(C)(c1ccc(OCCCNc2cccc3c2C(=O)N(C2CCC(=O)NC2=O)C3=O)cc1)c1ccc(OCc2ccnc(N3CCC3)n2)cc1 (stereo not shown) [Example 554, 4-((3-(4-(2-(4-((2-(azetidin-1-yl)pyrimidin-4-yl)methoxy)phenyl)propan-2-yl)phenoxy)propyl)amino)-2-(2,6-dioxopiperidin-3-yl)isoindolin-1,3-dione]",101 to 1000 nM,–
CC(C)(c1ccc(OCc2ccc(F)c(-n3ccnn3)n2)cc1)c1ccc(O[C@H]2C[C@H](Nc3ccc4c(c3)C(=O)N(C3CCC(=O)NC3=O)C4=O)C2)cc1 (stereo partly shown) [Example 286],11 to 100 nM,–
CCNC(=O)c1nccc(COc2ccc(C(C)(C)c3ccc(OC4CC(Nc5ccc6c(c5)C(=O)N(C5CCC(=O)NC5=O)C6=O)C4)cc3)cc2)n1 (stereo not shown) [Example 531],11 to 100 nM,–
Cn1cc(-c2ccc(Oc3ccc(C(C)(C)c4ccc(O[C@H]5C[C@H](Nc6ccc7c(c6)C(=O)N(C6CCC(=O)NC6=O)C7=O)C5)cc4)cc3)cn2)cn1 (stereo partly shown) [Example 205],11 to 100 nM,–
CC(C)(c1ccc(OCCCCCCCCOCCCCNc2ccc3c(c2)C(=O)N(C2CCC(=O)NC2=O)C3=O)cc1)c1ccc(OCc2nc(C(N)=O)no2)cc1 (stereo not shown) [Example 138],1000 to 5000 nM,–
CC(C)(c1ccc(OCc2ccnc(-c3ncno3)n2)cc1)c1ccc(O[C@H]2C[C@@H](Nc3ccc4c(c3)C(=O)N(C3CCC(=O)NC3=O)C4=O)C2)cc1 (stereo partly shown) [Example 252],1000 to 5000 nM,–
"NC(=O)c1noc(COc2ccc(C3(c4ccc(OCCCNc5ccc6c(c5)C(=O)N(C5CCC(=O)NC5=O)C6=O)cc4)CCC3)cc2)n1 (stereo not shown) [Example 352, 5-((4-(1-(4-(3-((2-(2,6-dioxopiperidin-3-yl)-1,3-dioxoisoindolin-5-yl)amino)propoxy)phenyl)cyclobutyl)phenoxy)methyl)-1,2,4-oxadiazol-3-carbonylamine]",11 to 100 nM,–
CN[C@@H]1CCCN(c2nccc(COc3ccc(C(C)(C)c4ccc(O[C@H]5C[C@@H](Nc6ccc7c(c6)C(=O)N(C6CCC(=O)NC6=O)C7=O)C5)cc4)cc3)n2)C1 (stereo partly shown) [Example 401],11 to 100 nM,–
CC(=O)c1nccc(COc2ccc(C(C)(C)c3ccc(N4CCC5(CCN(c6ccc7c(c6)C(=O)N(C6CCC(=O)NC6=O)C7=O)C5)C4)cc3)cc2)n1 (stereo not shown) [Example 560],1000 to 5000 nM,–
CC(C)(c1ccc(OCCCOCCCN2CCC3(CC2)CN(c2ccc4c(c2)C(=O)N(C2CCC(=O)NC2=O)C4=O)C3)cc1)c1ccc(OCc2ccnc(NS(C)(=O)=O)n2)cc1 (stereo not shown) [Example 4],–,> 10000 nM
CC(=O)c1nccc(COc2ccc(C(C)(C)c3ccc(OC4CCN(c5ccc6c(c5)C(=O)N(C5CCC(=O)NC5=O)C6=O)CC4)cc3)cc2)n1 (stereo not shown) [Example 557],–,> 10000 nM
"CC(C)(c1ccc(OCCCCCCCCOCCCCNc2ccc3c(c2)C(=O)N(C2CCC(=O)NC2=O)C3=O)cc1)c1ccc(OCc2ccnc(NS(C)(=O)=O)n2)cc1 (stereo not shown) [Example 22, N-(4-((4-(2-(4-((8-(4-((2-(2,6-dioxopiperidin-3-yl)-1,3-dioxoisoindolin-5-yl)amino)butoxy)octyl)oxy)phenyl)propan-2-yl)phenoxy)methyl)pyrimidin-2-yl)methanesulfonamide]",101 to 1000 nM,–
